Test results from US20160158200A1, “Combinations of Hepatitis C Virus Inhibitors” (priority 2013, published 2016).

These compounds were tested on HCV genotype-1a variant with glutamine 30 changed to glutamate in the NS5A protein. Settings: test compound titrated with BMS-790052 fixed at 200 nM; genotype 1a Q30E replicon.
Type: cell-based
In short: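 Synergy was assessed by combining several fixed amounts of an NS5A-targeting compound with a titration of the second compound of interest.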
With `CC(C)[C@H](NC(=O)N(C)C)c1nc(-c2ccc(-c3ccc(-c4c[nH]c([C@@H](NC(=O)N(C)C)C(C)C)n4)cc3)cc2)c[nH]1` [Compound S-228] the “Fold-Synergistic 1a (Q30E)” value was over 100 fold. `CCN(CC)C(=O)NC(c1nc(-c2ccc(-c3ccc(-c4c[nH]c(C(NC(=O)N(CC)CC)C(C)C)n4)cc3)cc2)c[nH]1)C(C)C` (centres unmarked) [Compound S-229] was tested, and the “Fold-Synergistic 1a (Q30E)” value was over 100 fold. With `CC(C)[C@H](NC(=O)N(C(C)C)C(C)C)c1nc(-c2ccc(-c3ccc(-c4c[nH]c([C@@H](NC(=O)N(C(C)C)C(C)C)C(C)C)n4)cc3)cc2)c[nH]1` [Compound S-230] the “Fold-Synergistic 1a (Q30E)” value was over 100 fold. In the case of `CC(C)[C@H](NC(=O)N1CCOCC1)c1ncc(-c2ccc(-c3ccc(-c4cnc([C@@H](NC(=O)N5CCOCC5)C(C)C)[nH]4)cc3)cc2)[nH]1` [Compound S-231], the “Fold-Synergistic 1a (Q30E)” value is reported as over 10 fold. `CC(C)[C@H](NC(=O)N1CCCC1)c1ncc(-c2ccc(-c3ccc(-c4cnc([C@@H](NC(=O)N5CCCC5)C(C)C)[nH]4)cc3)cc2)[nH]1` [Compound S-232] was tested, and the “Fold-Synergistic 1a (Q30E)” value was over 100 fold. In the case of `CC(C)[C@H](NC(=O)n1c2ccccc2c2ccccc21)c1ncc(-c2ccc(-c3ccc(-c4cnc([C@@H](NC(=O)n5c6ccccc6c6ccccc65)C(C)C)[nH]4)cc3)cc2)[nH]1` [Compound S-233], the “Fold-Synergistic 1a (Q30E)” value is reported as over 100 fold. With `CC(C)[C@H](NC(=O)N1CCCCC1)c1ncc(-c2ccc(-c3ccc(-c4cnc([C@@H](NC(=O)N5CCCCC5)C(C)C)[nH]4)cc3)cc2)[nH]1` [Compound S-234] the “Fold-Synergistic 1a (Q30E)” value was over 100 fold. `CC(C)[C@H](NC(=O)N1CCN(C)CC1)c1ncc(-c2ccc(-c3ccc(-c4cnc([C@@H](NC(=O)N5CCN(C)CC5)C(C)C)[nH]4)cc3)cc2)[nH]1` [Compound S-235] was tested, and the “Fold-Synergistic 1a (Q30E)” value was over 10 fold. In the case of `CC(C)[C@H](NC(=O)[C@H](NC(=O)OCc1ccccc1)C(C)C)c1ncc(-c2ccc(-c3ccc(-c4cnc([C@@H](NC(=O)[C@H](NC(=O)OCc5ccccc5)C(C)C)C(C)C)[nH]4)cc3)cc2)[nH]1` [Compound S-245], the “Fold-Synergistic 1a (Q30E)” value is reported as over 100 fold. `CC(C)COC(=O)N[C@@H](C(=O)N[C@H](c1ncc(-c2ccc(-c3ccc(-c4cnc([C@@H](NC(=O)[C@H](NC(=O)OCC(C)C)C(C)C)C(C)C)[nH]4)cc3)cc2)[nH]1)C(C)C)C(C)C` [Compound S-246] was tested, and the “Fold-Synergistic 1a (Q30E)” value was over 100 fold. In the case of `CCOC(=O)N[C@@H](C(=O)N[C@H](c1ncc(-c2ccc(-c3ccc(-c4cnc([C@@H](NC(=O)[C@H](NC(=O)OCC)C(C)C)C(C)C)[nH]4)cc3)cc2)[nH]1)C(C)C)C(C)C` [Compound S-247], the “Fold-Synergistic 1a (Q30E)” value is reported as over 100 fold. For `CCCOC(=O)N[C@@H](C(=O)N[C@H](c1ncc(-c2ccc(-c3ccc(-c4cnc([C@@H](NC(=O)[C@H](NC(=O)OCCC)C(C)C)C(C)C)[nH]4)cc3)cc2)[nH]1)C(C)C)C(C)C` [Compound S-248], the “Fold-Synergistic 1a (Q30E)” value was over 100 fold. `CCCCOC(=O)N[C@@H](C(=O)N[C@H](c1ncc(-c2ccc(-c3ccc(-c4cnc([C@@H](NC(=O)[C@H](NC(=O)OCCCC)C(C)C)C(C)C)[nH]4)cc3)cc2)[nH]1)C(C)C)C(C)C` [Compound S-249] was tested, and the “Fold-Synergistic 1a (Q30E)” value was over 100 fold. For `CC(C)OC(=O)N[C@@H](C(=O)N[C@H](c1ncc(-c2ccc(-c3ccc(-c4cnc([C@@H](NC(=O)[C@H](NC(=O)OC(C)C)C(C)C)C(C)C)[nH]4)cc3)cc2)[nH]1)C(C)C)C(C)C` [Compound S-250], the “Fold-Synergistic 1a (Q30E)” value was over 100 fold. For `CC(C)[C@H](NC(=O)[C@H](NC(=O)OC1CCCC1)C(C)C)c1ncc(-c2ccc(-c3ccc(-c4cnc([C@@H](NC(=O)[C@H](NC(=O)OC5CCCC5)C(C)C)C(C)C)[nH]4)cc3)cc2)[nH]1` [Compound S-251], the “Fold-Synergistic 1a (Q30E)” value was over 100 fold. `C#CCOC(=O)N[C@@H](C(=O)N[C@H](c1ncc(-c2ccc(-c3ccc(-c4cnc([C@@H](NC(=O)[C@H](NC(=O)OCC#C)C(C)C)C(C)C)[nH]4)cc3)cc2)[nH]1)C(C)C)C(C)C` [Compound S-252] was tested, and the “Fold-Synergistic 1a (Q30E)” value was over 100 fold. `CC(C)[C@H](NC(=O)[C@H](NC(=O)OCC(C)(C)C)C(C)C)c1ncc(-c2ccc(-c3ccc(-c4cnc([C@@H](NC(=O)[C@H](NC(=O)OCC(C)(C)C)C(C)C)C(C)C)[nH]4)cc3)cc2)[nH]1` [Compound S-253] was tested, and the “Fold-Synergistic 1a (Q30E)” value was over 100 fold. With `COc1ccc2cc([C@@H](C)C(=O)N[C@H](c3nc(-c4ccc(-c5ccc(-c6c[nH]c([C@@H](NC(=O)[C@H](C)c7ccc8cc(OC)ccc8c7)C(C)(C)C)n6)cc5)cc4)c[nH]3)C(C)(C)C)ccc2c1` [Compound S-254] the “Fold-Synergistic 1a (Q30E)” value was over 100 fold. With `CC(C)(C)[C@H](NC(=O)C1CCN(S(C)(=O)=O)CC1)c1nc(-c2ccc(-c3ccc(-c4c[nH]c([C@@H](NC(=O)C5CCN(S(C)(=O)=O)CC5)C(C)(C)C)n4)cc3)cc2)c[nH]1` [Compound S-255] the “Fold-Synergistic 1a (Q30E)” value was over 100 fold. `CCCC[C@@H](CC(=O)OC(C)(C)C)C(=O)N[C@H](c1nc(-c2ccc(-c3ccc(-c4c[nH]c([C@@H](NC(=O)[C@@H](CCCC)CC(=O)OC(C)(C)C)C(C)(C)C)n4)cc3)cc2)c[nH]1)C(C)(C)C` [Compound S-260] was tested, and the “Fold-Synergistic 1a (Q30E)” value was over 100 fold. For `CC(C)(C)[C@H](NC(=O)C12CCC(CC1)C2)c1nc(-c2ccc(-c3ccc(-c4c[nH]c([C@@H](NC(=O)C56CCC(CC5)C6)C(C)(C)C)n4)cc3)cc2)c[nH]1` [Compound S-261], the “Fold-Synergistic 1a (Q30E)” value was over 100 fold. In the case of `CC(C)(C)OC(=O)N1CCC(C(=O)N[C@H](c2nc(-c3ccc(-c4ccc(-c5c[nH]c([C@@H](NC(=O)C6CCN(C(=O)OC(C)(C)C)CC6)C(C)(C)C)n5)cc4)cc3)c[nH]2)C(C)(C)C)CC1` [Compound S-264], the “Fold-Synergistic 1a (Q30E)” value is reported as over 100 fold. With `COc1ccc(CNC(C)(C)C(=O)N[C@H](c2nc(-c3ccc(-c4ccc(-c5c[nH]c([C@@H](NC(=O)C(C)(C)NCc6ccc(OC)cc6)C(C)(C)C)n5)cc4)cc3)c[nH]2)C(C)(C)C)cc1` [Compound S-267] the “Fold-Synergistic 1a (Q30E)” value was over 100 fold. `CN1CCC(C(=O)N[C@H](c2nc(-c3ccc(-c4ccc(-c5c[nH]c([C@@H](NC(=O)C6CCN(C)CC6)C(C)(C)C)n5)cc4)cc3)c[nH]2)C(C)(C)C)CC1` [Compound S-268] was tested, and the “Fold-Synergistic 1a (Q30E)” value was over 10 fold. With `CC(C)(C)OC(=O)NC1CCC(C(=O)N[C@H](c2nc(-c3ccc(-c4ccc(-c5c[nH]c([C@@H](NC(=O)C6CCC(NC(=O)OC(C)(C)C)CC6)C(C)(C)C)n5)cc4)cc3)c[nH]2)C(C)(C)C)CC1` (some centres unmarked) [Compound S-270] the “Fold-Synergistic 1a (Q30E)” value was over 100 fold. `CC(C)(C)OC(=O)CC(C(=O)NC(c1nc(-c2ccc(-c3ccc(-c4c[nH]c(C(NC(=O)C(CC(=O)OC(C)(C)C)C5CCCC5)C(C)(C)C)n4)cc3)cc2)c[nH]1)C(C)(C)C)C1CCCC1` (centres unmarked) [Compound S-272] was tested, and the “Fold-Synergistic 1a (Q30E)” value was over 100 fold. For `COC(=O)C1(C(=O)N[C@H](c2nc(-c3ccc(-c4ccc(-c5c[nH]c([C@@H](NC(=O)C6(C(=O)OC)CCCCC6)C(C)(C)C)n5)cc4)cc3)c[nH]2)C(C)(C)C)CCCCC1` [Compound S-273], the “Fold-Synergistic 1a (Q30E)” value was over 100 fold. In the case of `CC(C)(C)[C@H](NC(=O)C(C)(C)n1cnnn1)c1nc(-c2ccc(-c3ccc(-c4c[nH]c([C@@H](NC(=O)C(C)(C)n5cnnn5)C(C)(C)C)n4)cc3)cc2)c[nH]1` [Compound S-277], the “Fold-Synergistic 1a (Q30E)” value is reported as over 100 fold. For `COC(=O)NN(C(=O)[C@@H]1CCC[C@H]1c1nc(-c2ccc(-c3ccc(-c4cnc([C@@H]5CCC[C@H]5C(=O)N(NC(=O)OC)C(C)C)[nH]4)cc3)cc2)c[nH]1)C(C)C` [Compound V-1], the “Fold-Synergistic 1a (Q30E)” value was over 100 fold. `CN(C)C(=O)C(=O)N[C@H](c1nc(-c2ccc(-c3ccc(-c4c[nH]c([C@@H](NC(=O)C(=O)N(C)C)C(C)(C)C)n4)cc3)cc2)c[nH]1)C(C)(C)C` [Compound W-10] was tested, and the “Fold-Synergistic 1a (Q30E)” value was over 100 fold. For `CC(C)(C)[C@H](NC(=O)C(=O)N1CCCCC1)c1nc(-c2ccc(-c3ccc(-c4c[nH]c([C@@H](NC(=O)C(=O)N5CCCCC5)C(C)(C)C)n4)cc3)cc2)c[nH]1` [Compound W-11], the “Fold-Synergistic 1a (Q30E)” value was over 100 fold. `CC(C)(C)[C@H](Nc1ncc(Br)cn1)c1nc(-c2ccc(-c3ccc(-c4c[nH]c([C@@H](Nc5ncc(Br)cn5)C(C)(C)C)n4)cc3)cc2)c[nH]1` [Compound W-16A] was tested, and the “Fold-Synergistic 1a (Q30E)” value was over 10 fold. In the case of `CC(C)(C)[C@H](N)c1nc(-c2ccc(-c3ccc(-c4c[nH]c([C@@H](Nc5ncc(Br)cn5)C(C)(C)C)n4)cc3)cc2)c[nH]1` [Compound W-16B], the “Fold-Synergistic 1a (Q30E)” value is reported as under 10 fold. In the case of `CC(C)(C)[C@H](NC(=O)C(=O)c1cccs1)c1nc(-c2ccc(-c3ccc(-c4c[nH]c([C@@H](NC(=O)C(=O)c5cccs5)C(C)(C)C)n4)cc3)cc2)c[nH]1` [Compound W-19], the “Fold-Synergistic 1a (Q30E)” value is reported as over 100 fold. `CC(C)(C)[C@H](NC(=O)C(=O)c1ccco1)c1nc(-c2ccc(-c3ccc(-c4c[nH]c([C@@H](NC(=O)C(=O)c5ccco5)C(C)(C)C)n4)cc3)cc2)c[nH]1` [Compound W-20] was tested, and the “Fold-Synergistic 1a (Q30E)” value was over 100 fold. In the case of `CC(C)(C)[C@H](NC(=O)C(=O)N1CCCC1)c1nc(-c2ccc(-c3ccc(-c4c[nH]c([C@@H](NC(=O)C(=O)N5CCCC5)C(C)(C)C)n4)cc3)cc2)c[nH]1` [Compound W-21], the “Fold-Synergistic 1a (Q30E)” value is reported as over 100 fold. `CC(C)(C)[C@H](NC(=O)C(=O)N1CCC(F)(F)C1)c1nc(-c2ccc(-c3ccc(-c4c[nH]c([C@@H](NC(=O)C(=O)N5CCC(F)(F)C5)C(C)(C)C)n4)cc3)cc2)c[nH]1` [Compound W-22] was tested, and the “Fold-Synergistic 1a (Q30E)” value was over 100 fold. For `CC(C)(C)[C@H](NC(=O)C(=O)N1CCC(F)(F)CC1)c1nc(-c2ccc(-c3ccc(-c4c[nH]c([C@@H](NC(=O)C(=O)N5CCC(F)(F)CC5)C(C)(C)C)n4)cc3)cc2)c[nH]1` [Compound W-24], the “Fold-Synergistic 1a (Q30E)” value was over 100 fold. With `CC(C)(C)[C@H](NC(=O)C(=O)N1CCOCC1)c1nc(-c2ccc(-c3ccc(-c4c[nH]c([C@@H](NC(=O)C(=O)N5CCOCC5)C(C)(C)C)n4)cc3)cc2)c[nH]1` [Compound W-25] the “Fold-Synergistic 1a (Q30E)” value was over 100 fold. In the case of `CC(C)(C)[C@H](NC(=O)C(=O)N1CCC(F)CC1)c1nc(-c2ccc(-c3ccc(-c4c[nH]c([C@@H](NC(=O)C(=O)N5CCC(F)CC5)C(C)(C)C)n4)cc3)cc2)c[nH]1` [Compound W-26], the “Fold-Synergistic 1a (Q30E)” value is reported as over 100 fold. With `CC(C)(C)[C@H](NC(=O)C(=O)N1CC(F)(F)C1)c1nc(-c2ccc(-c3ccc(-c4c[nH]c([C@@H](NC(=O)C(=O)N5CC(F)(F)C5)C(C)(C)C)n4)cc3)cc2)c[nH]1` [Compound W-28] the “Fold-Synergistic 1a (Q30E)” value was over 100 fold.
